Test results: PubChem BioAssay AID2060353 (Molecular Pharmacology Branch, DTP, NCI, 2025)

Test system: 521955-158-R2-J5-PDC spheroids with stroma, growth inhibition
Assay: Anticancer human tumor 521955-158-R2-J5-PDC patient-derived pancreatic carcinoma cell line growth inhibition [TAK]
Conditions: for IC50: curve of first compound; for viability, T/C: stronger effect = lower value
Procedure, shortened: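 Tumor cells were grown as spheroids with HUVEC and hMSC (60:25:15) and treated with targeted agents combined with TAK-243 or ipatasertib. Drugs were tested in half-log steps down from near the clinical Cmax, or from 10 microM where Cmax was unknown.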

[1] = second compound 0.3 µM, first compound 0.0316 µM
[2] = second compound 0.3 µM, first compound 0.1 µM
[3] = second compound 0.3 µM, first compound 0.316 µM
[4] = second compound 0.3 µM, first compound 1 µM
[5] = second compound 0.949 µM, first compound 0.0316 µM
[6] = second compound 0.949 µM, first compound 0.1 µM
[7] = second compound 0.949 µM, first compound 0.316 µM
[8] = second compound 0.949 µM, first compound 1 µM
[9] = second compound 3 µM, first compound 0.0316 µM
[10] = second compound 3 µM, first compound 0.1 µM
[11] = second compound 3 µM, first compound 0.316 µM
[12] = second compound 3 µM, first compound 1 µM
[13] = second compound 9.49 µM, first compound 0.0316 µM
[14] = second compound 9.49 µM, first compound 0.1 µM
[15] = second compound 9.49 µM, first compound 0.316 µM
[16] = second compound 9.49 µM, first compound 1 µM
[17] = second compound 30 µM, first compound 0.0316 µM
[18] = second compound 30 µM, first compound 0.1 µM
[19] = second compound 30 µM, first compound 0.316 µM
[20] = second compound 30 µM, first compound 1 µM
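Also: spheroids exposed to drugs for seven days before readout.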
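For viability, T/C in this document: 100% = DMSO vehicle control viability.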

`COc1c(OCCCN2CCOCC2)ccc2c3n(c(=NC(=O)c4cnc(N)nc4)nc12)CCN3` + CC(C)NCC(C(=O)N1CCN(c2ncnc3c2C(C)CC3O)CC1)c1ccc(Cl)cc1 showed an IC50 (second compound 0.3 µM) of 18.5 nM, an IC50 (second compound 0.949 µM) of 5.05 nM and an IC50 (second compound 3 µM) of under 3.16 nM. The IC50 (second compound 9.49 µM) was under 3.16 nM, the IC50 (second compound 30 µM) was under 3.16 nM and the viability, T/C (second compound 0.3 µM, first compound 0.00316 µM) was 69.3%. For the same compound, the viability, T/C (second compound 0.3 µM, first compound 0.01 µM) was 60.2%, the viability, T/C [1] was 40.2% and the viability, T/C [2] was 25.3%. The viability, T/C [3] was 7.66%, the viability, T/C [4] was 7.14% and the viability, T/C (second compound 0.949 µM, first compound 0.00316 µM) was 51%. For the same compound, the viability, T/C (second compound 0.949 µM, first compound 0.01 µM) was 48.7%, the viability, T/C [5] was 31.4% and the viability, T/C [6] was 15.8%. For the same compound, the viability, T/C [7] was 8.04%, the viability, T/C [8] was 7.27% and the viability, T/C (second compound 3 µM, first compound 0.00316 µM) was 41%. The viability, T/C (second compound 3 µM, first compound 0.01 µM) was 28%, the viability, T/C [9] was 17.3% and the viability, T/C [10] was 10.1%. It also gave a viability, T/C [11] of 7.86%, a viability, T/C [12] of 7.56% and a viability, T/C (second compound 9.49 µM, first compound 0.00316 µM) of 23.8%. The viability, T/C (second compound 9.49 µM, first compound 0.01 µM) was 16.5%, the viability, T/C [13] was 12.8% and the viability, T/C [14] was 8.78%. It also gave a viability, T/C [15] of 7.47%, a viability, T/C [16] of 7.49% and a viability, T/C (second compound 30 µM, first compound 0.00316 µM) of 19.2%. The viability, T/C (second compound 30 µM, first compound 0.01 µM) was 13.1%, the viability, T/C [17] was 8.7% and the viability, T/C [18] was 7.22%. For the same compound, the viability, T/C [19] was 6.67% and the viability, T/C [20] was 5.5%.

Work on `Cc1nc(NC(=O)N2CCCC2C(N)=O)sc1-c1ccnc(C(C)(C)C(F)(F)F)c1` (stereo not given) + CC(C)NCC(C(=O)N1CCN(c2ncnc3c2C(C)CC3O)CC1)c1ccc(Cl)cc1 yielded an IC50 (second compound 0.3 µM) of 909 nM, an IC50 (second compound 0.949 µM) of 533 nM and an IC50 (second compound 3 µM) of 159 nM. It also gave an IC50 (second compound 9.49 µM) of 123 nM, an IC50 (second compound 30 µM) of under 31.6 nM and a viability, T/C [1] of 109%. The viability, T/C [2] was 84.3%, the viability, T/C [3] was 58.2% and the viability, T/C [4] was 49%. The viability, T/C (second compound 0.3 µM, first compound 3.16 µM) was 45.1%, the viability, T/C (second compound 0.3 µM, first compound 10 µM) was 30.1% and the viability, T/C [5] was 76.2%. The viability, T/C [6] was 69%, the viability, T/C [7] was 52.5% and the viability, T/C [8] was 45%. For the same compound, the viability, T/C (second compound 0.949 µM, first compound 3.16 µM) was 34.8%, the viability, T/C (second compound 0.949 µM, first compound 10 µM) was 27.7% and the viability, T/C [9] was 78.7%. It also gave a viability, T/C [10] of 54%, a viability, T/C [11] of 40.6% and a viability, T/C [12] of 31.3%. For the same compound, the viability, T/C (second compound 3 µM, first compound 3.16 µM) was 22.3%, the viability, T/C (second compound 3 µM, first compound 10 µM) was 15.2% and the viability, T/C [13] was 70.7%. For the same compound, the viability, T/C [14] was 55.4%, the viability, T/C [15] was 29.5% and the viability, T/C [16] was 19.6%. For the same compound, the viability, T/C (second compound 9.49 µM, first compound 3.16 µM) was 13.7%, the viability, T/C (second compound 9.49 µM, first compound 10 µM) was 8.86% and the viability, T/C [17] was 48%. It also gave a viability, T/C [18] of 42.7%, a viability, T/C [19] of 23.9% and a viability, T/C [20] of 17.2%. It also gave a viability, T/C (second compound 30 µM, first compound 3.16 µM) of 11% and a viability, T/C (second compound 30 µM, first compound 10 µM) of 6.07%.
